# Patent US20110190398A1, “USE OF IMMUNOS[…] IN A NEW INDICATION” (NOVARTIS AG, priority 2008, published 2011)
# Counter-ions that a name gives are not always drawn.
# Assays:
# Type in all cases: in vivo, Lewis rats
# [1] = test system: Experimental Autoimmune Neuritis; assay: Body weight course in EAN rats; conditions: 1 mg/kg once daily, control showed significant weight loss Day 10 to 18
# Description: (§1) Male Lewis rats (8-10 weeks, 180-200 g, Elevage-Janvier, France) were housed under a 12 h light-12 h dark cycle and with free access to food and water. All animal procedures were in accordance with a protocol approved by the local Administration District Official Committee. All efforts were made to minimize the number of animals and their suffering.
# (§2) For EAN induction, rats were immunized by subcutaneous injection into both hind footpads with 100 μL of an inoculum containing 100 μg of synthetic neuritogenic P2 57-81 peptide (GeneScript Corporation, Scotch Plains, N.J., USA). The peptide was dissolved in phosphate buffered saline (PBS) (2 mg/mL) and then emulsified with an equal volume of complete Freund's adjuvant (CFA) containing 2 mg/mL mycobacterium tuberculosis to get a final concentration of 1 mg/mL.
# Compound A was tested at a concentration of 1 mg/kg (suspended in a water vehicle). The compound A suspension was intragastrically administrated immediately after induction and then once daily until Day 22 (5 rats per group). For control EAN rats, the same volume of 1% CMC in water was given.
# [2] = test system: Experimental Autoimmune Neuritis; assay: Luxol Fast Blue staining, semiquantitative histological score of EAN sciatic nerves; conditions: EAN rats, Day 16, 1 mg/kg in water vehicle, LFB staining of sciatic nerves, scale 0-3
# Description: as §1
# For EAN induction, rats were immunized by subcutaneous injection into both hind footpads with 100 μL of an inoculum containing 100 μg of synthetic neuritogenic P2 57-81 peptide (GeneScript Corporation, Scotch Plains, N.J., USA). […]
# The routine Luxol Fast Blue (LFB) staining was applied to show myelin. […] Briefly, four cross-sections from root and middle level of both sides of EAN rats were analyzed. All perivascular areas present in cross-sections were evaluated by two observers unaware of the treatment, and the degree of pathological alteration was graded semiquantitatively on the following scale: 0=normal perivascular area; 1=mild cellular infiltrate adjacent to the vessel; 2=cellular infiltration plus demyelination in immediate proximity to the vessel; and 3=cellular infiltration and demyelination throughout the section. […]
# [3] = test system: Experimental Autoimmune Neuritis; assay: EAN clinical score, suppressive treatment; conditions: EAN rats, 1 mg/kg intragastrically once daily from immunization until Day 22; scale 0-10; control maximal 4.80±0.51 at Day 13
# Description: as §1, §2
# EAN clinical scores were evaluated every day as follows: 0=normal, 1=reduced tonus of tail, 2=limp tail, impaired righting, 3=absent righting, 4=gait ataxia, 5=mild paresis of the hind limbs, 6=moderate paraparesis, 7=severe paraparesis or paraplegia of the hind limbs, 8=tetraparesis, 9=moribund, and 10=death (Zhang et al., 2009A).
# Compound A was tested at a concentration of 1 mg/kg (suspended in a water vehicle). The compound A suspension was intragastrically administrated immediately after induction and then once daily until Day 22 (5 rats per group). […]
# [4] = test system: Experimental Autoimmune Neuritis; assay: Immunohistochemistry of inflammatory cell infiltration in EAN sciatic nerves; conditions: EAN rats, Day 16, 1 mg/kg, sciatic nerve cross-sections, n=5
structure (smiles),measurement,setting,value
"CCC(N)(CO)CCc1ccc(Sc2cccc(OCc3ccccc3)c2)cc1Cl (stereo not drawn) [Compound A, 2-amino-4-[4-(3-benzyloxyphenylthio)-2-chlorophenyl]-2-ethylbutane-1-ol hydrochloride]",weight loss,[1],a reduced level of weight loss was observed from Day 13 to 15
same,Mean Histological Score,[2],0.10
same,mean neurological score,[3],< 0.1
same,Area of immunoreactivity/area of sciatic nerves (%) for B cells (OX22+),[4],<0.01%
same,Area of immunoreactivity/area of sciatic nerves (%) for Macrophages (ED1+),[4],<0.05%
same,Area of immunoreactivity/area of sciatic nerves (%) for T cells (W3/13+),[4],<0.01%
